Values quoted from earlier work as cited in patent US20160095850A1, “METHODS AND COMPOSITIONS FOR TREATMENT OF HIV INFECTION” (COOPER HUMAN SYSTEMS LLC, priority 2013, published 2016).

Legend:
[1] = tested on: HIV RNA expression in CD4 T cells
[2] = tested on: HIV-RNA in resting CD4 T cells; settings: single dose of 400 mg
A549 cells = settings: read-out: EC50, dose-dependent increase in acetylated histone levels
[3] = tested on: HDAC activity in HeLa extracts; settings: read-out: IC50 for inhibition of HDAC activity
HDAC3 = HDAC3 (Homo sapiens, UniProt O15379)
HDAC3, sequence (O15379 whole entry): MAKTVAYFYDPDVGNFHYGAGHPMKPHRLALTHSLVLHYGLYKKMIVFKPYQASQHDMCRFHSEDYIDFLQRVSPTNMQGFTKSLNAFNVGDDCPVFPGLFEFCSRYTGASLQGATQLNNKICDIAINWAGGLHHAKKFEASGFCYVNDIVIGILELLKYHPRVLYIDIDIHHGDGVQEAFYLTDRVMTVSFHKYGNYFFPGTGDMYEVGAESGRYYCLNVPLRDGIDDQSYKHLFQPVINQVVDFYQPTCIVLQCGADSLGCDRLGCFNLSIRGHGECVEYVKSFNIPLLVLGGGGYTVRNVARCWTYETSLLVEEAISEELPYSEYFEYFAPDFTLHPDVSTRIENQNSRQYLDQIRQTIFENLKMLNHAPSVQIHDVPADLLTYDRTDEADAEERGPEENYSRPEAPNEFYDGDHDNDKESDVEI
HDAC3, sequence (Q9Y618 395-489 partner limits assumed): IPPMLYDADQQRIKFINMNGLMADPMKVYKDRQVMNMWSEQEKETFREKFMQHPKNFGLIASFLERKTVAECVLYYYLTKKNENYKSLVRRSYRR

[4] = human, in vivo
HDAC8 = biological target: T1, HDAC8 (Homo sapiens, UniProt Q9BY41)
T1 sequence (Q9BY41 1-377): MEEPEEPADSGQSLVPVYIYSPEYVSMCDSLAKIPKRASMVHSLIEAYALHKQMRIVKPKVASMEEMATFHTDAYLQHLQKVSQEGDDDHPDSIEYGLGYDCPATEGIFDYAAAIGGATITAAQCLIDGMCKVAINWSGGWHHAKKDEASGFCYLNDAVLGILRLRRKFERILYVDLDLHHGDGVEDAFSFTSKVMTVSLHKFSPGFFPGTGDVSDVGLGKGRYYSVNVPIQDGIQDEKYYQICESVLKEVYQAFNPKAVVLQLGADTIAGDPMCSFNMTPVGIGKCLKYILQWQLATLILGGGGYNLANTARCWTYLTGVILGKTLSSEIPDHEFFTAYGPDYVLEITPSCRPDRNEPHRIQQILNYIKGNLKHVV

For `O=C(CCCCCCC(=O)Nc1ccccc1)NO` [Vorinostat, suberoylanilide hydroxamic acid], the “course of the induction of HIV RNA” value [1] is listed as “transient and diminished after 24 hours” and the “evaluated subjects with significantly increased expression of HIV-RNA in isolated resting CD4 T cells” value [2] is listed as 8 of 8.
For `Nc1ccccc1NC(=O)CCCCCCC(=O)Nc1ccccc1` [BML-210], the EC50 (A549 cells) is given as 36 µM and the IC50 [3] is given as 80 µM.
For `O=C(CCCCCCC(=O)NO)NO` [SBHA, Suberohydroxamic acid], the IC50 (HDAC3) is listed as 0.3 µM.
In the case of “IL-15: cytokine promoting activation and maintenance of NK and CD8 T effector memory cells”, the “expansion of CD8 T(EM) cells in the peripheral blood” value (CD8 T(EM) cells; 20 μg/kg/d by continuous intravenous infusion for 10 days) is given as 100 fold and the “expansion of CD8 T(EM) cells” value (CD8 T(EM) cells; 20-40 μg/kg/d by subcutaneous injection) is given as 10 fold.
For `NCCCCN(Cc1nc2ccccc2[nH]1)[C@H]1CCCc2cccnc21` [AMD070], the “median estimated terminal half-life” value [4] is listed as 7.6 to 12.6 h.
In the case of `Cc1cc(Cl)ccc1OCCCC(=O)NO` [Droxinostat], the IC50 (HDAC3) is given as 16.9 µM, the IC50 (HDAC8) is given as 1.46 µM and the IC50 (other HDAC members) is given as > 20 µM.
